Experimental findings from US12398120B2, “Substituted hydantoinamides as ADAMTS7 antagonists” (BAYER AKTIENGESELLSCHAFT, priority 2019, dated 2025) are described below.

The structures appear in SMILES notation.

Chain of ADAMTS4 (O75173 213-685): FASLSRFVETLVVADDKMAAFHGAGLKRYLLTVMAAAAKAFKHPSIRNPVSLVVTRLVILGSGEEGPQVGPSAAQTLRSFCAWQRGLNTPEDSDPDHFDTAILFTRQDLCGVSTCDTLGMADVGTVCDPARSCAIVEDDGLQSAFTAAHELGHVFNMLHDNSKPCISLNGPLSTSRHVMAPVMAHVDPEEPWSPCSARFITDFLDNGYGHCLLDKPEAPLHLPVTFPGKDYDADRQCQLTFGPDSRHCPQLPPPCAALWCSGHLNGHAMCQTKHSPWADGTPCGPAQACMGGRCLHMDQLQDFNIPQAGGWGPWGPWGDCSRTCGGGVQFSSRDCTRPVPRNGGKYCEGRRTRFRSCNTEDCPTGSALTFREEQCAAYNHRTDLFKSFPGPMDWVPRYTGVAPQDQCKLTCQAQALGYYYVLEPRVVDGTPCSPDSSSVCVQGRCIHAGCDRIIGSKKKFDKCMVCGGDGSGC

The test has as its target ADAMTS4 (Homo sapiens (Human), UniProt O75173). Kind of test: Selectivity assay for ADAMTS-7 modulators: ADAMTS4 (FRET substrate). The format is biochemical. The conditions noted are these: ADAMTS4 (R&D 4307-AD) 50 nM, substrate Dabcyl-EEVKAKVQPY-Glu(Edans)-NH2 1 μM, 120 min, 32° C. In a few lines:
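Activity read as rising fluorescence after a FRET substrate is cleaved by human ADAMTS4, with reactions started by substrate addition to wells holding compound or DMSO. Percent inhibition plotted against concentration gave IC50.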
Compound `COc1ccc(-c2ccccc2C(=O)NC[C@@]2(C3CC3)NC(=O)NC2=O)cc1` [Example 130, N-{[(4R)-4-Cyclopropyl-2,5-Dioxoimidazolidin-4-Yl]Methyl}-4′-Methoxy[Biphenyl]-2-Carboxamide] had an IC50 of 17.3 µM. `Cn1nccc1C1(CNC(=O)c2cc(F)ccc2-c2ccc(Cl)cc2)NC(=O)NC1=O` (single isomer, unassigned; ent-4) [Example 187, Ent-4′-Chloro-4-Fluoro-N-{[4-(1-Methyl-1H-Pyrazol-5-Yl)-2,5-Dioxoimidazolidin-4-Yl]Methyl}[Biphenyl]-2-Carboxamide] had an IC50 of 3.55 µM. As for `O=C1NC(=O)[C@](CNC(=O)c2ccccc2-c2ccc(C(F)(F)F)cn2)(C2CC2)N1` [Example 84, N-{[(4R)-4-Cyclopropyl-2,5-Dioxoimidazolidin-4-Yl]Methyl}-2-[5-(Trifluoromethyl)Pyridin-2-Yl]Benzamide], the IC50 amounted to 50 µM. `CC(C)(C#N)c1ccc(-c2ccccc2C(=O)NC[C@@]2(C3CC3)NC(=O)NC2=O)cc1` [Example 123, 4′-(2-Cyanopropan-2-Yl)-N-{[(4R)-4-Cyclopropyl-2,5-Dioxoimidazolidin-4-Yl]Methyl}[Biphenyl]-2-Carboxamide] had an IC50 of 19 µM. In turn, `Cn1ccnc1C1(CNC(=O)c2ccc(Cl)cc2-c2ccc(C(F)(F)F)cc2)NC(=O)NC1=O` (single isomer, unassigned; ent-5) [Example 161, Ent-5-Chloro-N-{[4-(1-Methyl-1H-Imidazol-2-Yl)-2,5-Dioxoimidazolidin-4-Yl]Methyl}-4′-(Trifluoromethyl)[Biphenyl]-2-Carboxamide] returned an IC50 of 0.728 µM. Under `O=C1NC(=O)C(CNC(=O)c2ccccc2-c2ccc(C(F)(F)F)cc2)(C2(Cl)CC2)N1` (stereo not drawn) [Example 280, Ent-N-{[4-(1-Chlorocyclopropyl)-2,5-Dioxoimidazolidin-4-Yl]Methyl}-4′-(Trifluoromethyl)[Biphenyl]-2-Carboxamide] stands 7.1 µM. Regarding `Cc1nsnc1C1(CNC(=O)c2ccccc2-c2ccc(C(F)(F)F)cc2)NC(=O)NC1=O` (stereo not drawn) [Example 85, Ent-N-{[4-(4-Methyl-1,2,5-Thiadiazol-3-Yl)-2,5-Dioxoimidazolidin-4-Yl]Methyl}-4′-(Trifluoromethyl)[Biphenyl]-2-Carboxamide], the IC50 is 13 µM. On to `Cc1ncoc1C1(CNC(=O)c2ccccc2-c2ccc(C(F)(F)F)cc2)NC(=O)NC1=O` (racemic) [Example 43, Rac-N-{[4-(4-Methyl-1,3-Oxazol-5-Yl)-2,5-Dioxoimidazolidin-4-Yl]Methyl}-4′-(Trifluoromethyl)[Biphenyl]-2-Carboxamide], for which the IC50 is 28 µM.

As for `O=C1NC(=O)[C@](CNC(=O)c2ccccc2-c2ccc(Cl)cc2F)(C2CC2)N1` [Example 54, 4′-Chloro-N-{[(4R)-4-Cyclopropyl-2,5-Dioxoimidazolidin-4-Yl]Methyl}-2′-Fluoro[Biphenyl]-2-Carboxamide], the midpoint of inhibition, the IC50, lay at 32 µM. Regarding `O=C1NC(=O)C(CNC(=O)c2ccccc2-c2ccc(C(F)(F)F)nc2)(c2cscn2)N1` (stereo not drawn) [Example 277, Ent-N-{[2,5-Dioxo-4-(1,3-Thiazol-4-Yl)Imidazolidin-4-Yl]Methyl}-2-[6-(Trifluoromethyl)Pyridin-3-Yl]Benzamide], half-maximal inhibition (IC50) was put at 16 µM. In the case of `Cn1nccc1C1(CNC(=O)c2c(F)cccc2-c2ccc(C(F)(F)F)cc2)NC(=O)NC1=O` (single isomer, unassigned; ent-3) [Example 186, Ent-3-Fluoro-N-{[4-(1-Methyl-1H-Pyrazol-5-Yl)-2,5-Dioxoimidazolidin-4-Yl]Methyl}-4′-(Trifluoromethyl)[Biphenyl]-2-Carboxamide], the IC50 was found to be 24 µM. For `Cc1ncsc1C1(CNC(=O)c2ccccc2-c2ccc(C(F)(F)F)cc2)NC(=O)NC1=O` (stereo not drawn) [Example 27, Ent-N-{[4-(4-Methyl-1,3-Thiazol-5-Yl)-2,5-Dioxoimidazolidin-4-Yl]Methyl}-4′-(Trifluoromethyl)[Biphenyl]-2-Carboxamide], inhibition was half-maximal at 9.1 µM (IC50).

In the case of `Cc1scnc1C1(CNC(=O)c2ccc(Cl)cc2-c2ccc(C(F)(F)F)cc2)NC(=O)NC1=O` (single isomer, unassigned; ent-5) [Example 16, Ent-5-Chloro-N-{[4-(5-Methyl-1,3-Thiazol-4-Yl)-2,5-Dioxoimidazolidin-4-Yl]Methyl}-4′-(Trifluoromethyl)[Biphenyl]-2-Carboxamide], the IC50 came out at 3.5 µM.

Turning to `Cc1ccc(-c2ccccc2C(=O)NC[C@@]2(C3CC3)NC(=O)NC2=O)cc1F` [Example 221, N-{[(4R)-4-Cyclopropyl-2,5-Dioxoimidazolidin-4-Yl]Methyl}-3′-Fluoro-4′-Methyl[1,1′-Biphenyl]-2-Carboxamide], the IC50 amounted to 8.1 µM. Consider `Cc1ncsc1C1(CNC(=O)c2ccccc2-c2ccc(C(F)(F)F)cc2)NC(=O)NC1=O` (racemic) [Example 5, Rac-N-{[4-(4-Methyl-1,3-Thiazol-5-Yl)-2,5-Dioxoimidazolidin-4-Yl]Methyl}-4′-(Trifluoromethyl)[Biphenyl]-2-Carboxamide], for which the IC50 was 12 µM. `O=C1NC(=O)[C@](CNC(=O)c2ccccc2-c2ccc(CC(F)(F)F)cc2)(C2CC2)N1` [Example 119, N-{[(4R)-4-Cyclopropyl-2,5-Dioxoimidazolidin-4-Yl]Methyl}-4′-(2,2,2-Trifluoroethyl)[Biphenyl]-2-Carboxamide] came in with an IC50 of 9.1 µM. `Cc1cnoc1C1(CNC(=O)c2ccccc2-c2ccc(C(F)(F)F)cc2)NC(=O)NC1=O` (racemic) [Example 59, Rac-N-{[4-(4-Methyl-1,2-Oxazol-5-Yl)-2,5-Dioxoimidazolidin-4-Yl]Methyl}-4′-(Trifluoromethyl)[Biphenyl]-2-Carboxamide]: the IC50 worked out at 23 µM. Under `Cc1cc(C2(CNC(=O)c3ccccc3-c3ccc(C(F)(F)F)cc3)NC(=O)NC2=O)n(C)n1` (racemic) [Example 275, Rac-N-{[4-(1,3-Dimethyl-1H-Pyrazol-5-Yl)-2,5-Dioxoimidazolidin-4-Yl]Methyl}-4′-(Trifluoromethyl)[Biphenyl]-2-Carboxamide] stands 9.1 µM. Consider `Cc1ncsc1C1(CNC(=O)c2ccccc2-c2ccc(Cl)cc2)NC(=O)NC1=O` (single isomer, unassigned; ent-4) [Example 9, Ent-4′-Chloro-N-{[4-(4-Methyl-1,3-Thiazol-5-Yl)-2,5-Dioxoimidazolidin-4-Yl]Methyl}[Biphenyl]-2-Carboxamide], for which the IC50 stood at 4.8 µM. Compound `Cc1scnc1C1(CNC(=O)c2ccccc2-c2ccc(S(C)(=O)=O)cc2)NC(=O)NC1=O` (single isomer, unassigned; ent-4) [Example 175, Ent-4′-(Methylsulfonyl)-N-{[4-(5-Methyl-1,3-Thiazol-4-Yl)-2,5-Dioxoimidazolidin-4-Yl]Methyl}[Biphenyl]-2-Carboxamide] had an IC50 of 4.9 µM. Compound `Cc1cccc(C(=O)NCC2(c3nccn3C)NC(=O)NC2=O)c1-c1ccc(C(F)(F)F)cc1` (single isomer, unassigned; ent-6) [Example 133, Ent-6-Methyl-N-{[4-(1-Methyl-1H-Imidazol-2-Yl)-2,5-Dioxoimidazolidin-4-Yl]Methyl}-4′-(Trifluoromethyl)[1,1′-Biphenyl]-2-Carboxamide] yielded an IC50 of 1.6 µM.

`O=C1NC(=O)[C@](CNC(=O)c2ccccc2-c2ccccc2)(C2CC2)N1` [Example 131, N-{[(4R)-4-Cyclopropyl-2,5-Dioxoimidazolidin-4-Yl]Methyl}[Biphenyl]-2-Carboxamide] registered an IC50 of 8.7 µM. Under `Cc1c(C2(CNC(=O)c3ccc(Cl)cc3-c3ccc(C(F)(F)F)cc3)NC(=O)NC2=O)cnn1C` (single isomer, unassigned; ent-5) [Example 79, Ent-5-Chloro-N-{[4-(1,5-Dimethyl-1H-Pyrazol-4-Yl)-2,5-Dioxoimidazolidin-4-Yl]Methyl}-4′-(Trifluoromethyl)[Biphenyl]-2-Carboxamide] stands 2.1 µM; under `Cn1ccnc1C1(CNC(=O)c2ccc(Cl)cc2-c2ccc(Cl)cc2)NC(=O)NC1=O` (single isomer, unassigned; ent-4) [Example 162, Ent-4′,5-Dichloro-N-{[4-(1-Methyl-1H-Imidazol-2-Yl)-2,5-Dioxoimidazolidin-4-Yl]Methyl}[Biphenyl]-2-Carboxamide], 0.463 µM. The compound `COc1ccc(C(=O)NC[C@@]2(C3CC3)NC(=O)NC2=O)c(-c2ccc(C3CC3)cc2)c1` [Example 103, 4′-Cyclopropyl-N-{[(4R)-4-Cyclopropyl-2,5-Dioxoimidazolidin-4-Yl]Methyl}-5-Methoxy[Biphenyl]-2-Carboxamide] had an IC50 of 7.1 µM. In turn, `Cn1nccc1C1(CNC(=O)c2ccccc2-c2ccc(S(C)(=O)=O)cc2)NC(=O)NC1=O` (stereo not drawn) [Example 194, Ent-N-{[4-(1-Methyl-1H-Pyrazol-5-Yl)-2,5-Dioxoimidazolidin-4-Yl]Methyl}-4′-(Methylsulfonyl)[Biphenyl]-2-Carboxamide] returned an IC50 of 8.9 µM. The compound `O=C1NC(=O)C(CNC(=O)c2ccc(F)c(F)c2-c2ccc(C(F)(F)F)cc2)(C2(F)CC2)N1` (racemic) [Example 256, Rac-5,6-Difluoro-N-{[4-(1-Fluorocyclopropyl)-2,5-Dioxoimidazolidin-4-Yl]Methyl}-4′-(Trifluoromethyl)[Biphenyl]-2-Carboxamide] displayed an IC50 of 28 µM. In turn, `Cn1nccc1C1(CNC(=O)c2ccc(F)cc2-c2ccc(Cl)cc2)NC(=O)NC1=O` (single isomer, unassigned; ent-4) [Example 180, Ent-4′-Chloro-5-Fluoro-N-{[4-(1-Methyl-1H-Pyrazol-5-Yl)-2,5-Dioxoimidazolidin-4-Yl]Methyl}[Biphenyl]-2-Carboxamide] registered an IC50 of 17.8 µM.

For the compound `O=C1NC(=O)C(CNC(=O)c2ccc(F)cc2-c2ccc(Cl)cc2)(c2ccnn2C(F)F)N1` (racemic) [Example 257, Rac-4′-Chloro-N-({4-[1-(Difluoromethyl)-1H-Pyrazol-5-Yl]-2,5-Dioxoimidazolidin-4-Yl}Methyl)-5-Fluoro[Biphenyl]-2-Carboxamide], the IC50 came out at 11 µM.

Usually IC50 stands for the point on the concentration scale where inhibition reaches its midpoint. Read a high IC50 as lower potency.
